2 molecules from ChEMBL document CHEMBL5528077, “Structure-Based Discovery of High-Affinity Small Molecule Ligands and Development of Tool Probes to Study the Role of Chitinase-3-Like Protein 1” (J Med Chem, 2024) can be followed below.

One may read the clearance as the volume of plasma or blood freed of the substance per unit of time. Lower therefore signals a low capacity for elimination. What is called Vd is a proportionality between amount in the body and measured concentration, not a real space. A low value points to confinement near the circulation. By bioavailability is commonly meant the share of a dose that reaches the circulation, judged against a reference dose that is usually intravenous. Low readings indicate little systemic uptake, high ones much systemic uptake.

Data set [1] is described as follows: in vivo. Particulars: BALB/c, mouse, iv, 3 mg/kg.
Data set [2] can be described thus: in vivo. Particulars: BALB/c, mouse, iv, 3 mg/kg. The source holds these as a separate data set.
The nature of data set [3]: in vivo. Particulars: BALB/c, mouse, po, 10 mg/kg.

`Cc1ccnc(N2CCC(N3C[C@H](C)OC[C@@H]3Cc3ccc(Cl)cc3)CC2)c1` returned a clearance in “in vivo [1]” of 58 mL/min/kg. In the data set “in vivo [2]”, the Vd was 2.5 L/kg.
Regarding `CC(C)CN1C[C@H](Cc2ccc(Cl)cc2)N(C2CCN(c3ccccn3)CC2)C[C@@H]1C`, the clearance in “in vivo [1]” was 69 mL/min/kg. The same molecule registered a Vd in the data set “in vivo [2]” of 9.25 L/kg. Also, in the data set “in vivo [3]”, the bioavailability is 5.6%.
